Data from PubChem BioAssay AID720632 (Broad Institute, 2013).
The source made the active and inactive calls. How the calls were made is not given here.

Target: Caspase-6 (Homo sapiens) (UniProt P55212)
Experiment: inhibition of CASP6 peptide cleavage – biochemical, VEID-R110 fluorescence, cherry-pick, dose response (AID 720632)
Settings: caspase-6, VEID-R110 fluorogenic substrate

Sequence of Caspase-6 (Homo sapiens) (P55212 24-179 limits assumed): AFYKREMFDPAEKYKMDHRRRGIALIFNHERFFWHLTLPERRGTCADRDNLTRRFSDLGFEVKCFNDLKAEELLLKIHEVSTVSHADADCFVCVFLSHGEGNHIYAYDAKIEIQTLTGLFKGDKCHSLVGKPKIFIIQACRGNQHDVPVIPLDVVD
Sequence of Caspase-6 (Homo sapiens) (P55212 194-293 limits assumed): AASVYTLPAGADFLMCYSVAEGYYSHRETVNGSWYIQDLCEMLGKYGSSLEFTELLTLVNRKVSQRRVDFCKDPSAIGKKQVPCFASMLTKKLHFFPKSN

| Compound | AC50 |
| --- | --- |
| C[CH2][Hg][S]c1ccccc1C(=O)O | 6.91 µM |
| C[c-]1[c-](C)[c-](C)[c-](C)[c-]1C.[Fe].c1cc2nccc(N3CCCC3)[c-]2c1 (centres undefined) | 5.86 µM |

Same assay, conditions: caspase-6, VEID-R110 fluorogenic substrate; at 23.5 µM (top of the series)

| Compound | activity change, negative = inhibition |
| --- | --- |
| CCC(=O)Nc1ccc2c(c1)OC[C@@H](C)N(C(=O)COC)C[C@H](C)[C@@H](OC)CN(C)C2=O | inactive |
| COc1ccccc1C(=O)Nc1ccc2c(c1)OC[C@@H](C)N(CC1CC1)C[C@@H](C)[C@H](OC)CN(C)C2=O | inactive |

Same assay, conditions: caspase-6, VEID-R110 fluorogenic substrate; at 26 µM (top of the series)

| Compound | activity change, negative = inhibition |
| --- | --- |
| O=C(COC(=O)Cc1ccc(S(=O)(=O)N2CCOCC2)s1)Nc1ccc(F)cc1F | inactive |
| CN1CCN(CC(=O)Nc2ccc(Cl)cc2Cl)CC1 | inactive |
| COc1ccc(CCNC(=O)c2cc3cccc(OC)c3oc2=O)cc1OC | inactive |
| Cc1ccccc1OC1(C)CCN(Cc2ccc(-c3ccccn3)cc2)C1 (centres undefined) | inactive |
| Cc1ccc(C(=O)NCC(=O)N(C)Cc2ccccc2C)s1 | inactive |
| O=C(Oc1ccc(Nc2ncnc3ccccc23)cc1)c1cccnc1 | inactive |
| COc1cc(OC)c(-c2nn3c(C4CCCCC4)nnc3s2)cc1OC | inactive |
| COC(=O)[C@H]1[C@H](CO)[C@H]2Cn3c(cccc3=O)[C@H]2N1CC1CCOCC1 | inactive |
| O=C(N/N=C/c1oc(O)c2ccccc12)c1ccccc1O | inactive |
| CN(C)c1ccc2c(c1)[C@@H]1C[C@@H](CC(=O)NCc3ccccn3)O[C@@H](CO)[C@@H]1O2 | inactive |
| CCOC(=O)c1sc(C)c2c(=O)n(Cc3ccc(Cl)cc3)cnc12 | inactive |
| O=C(Nc1ccccc1)C1CCN(S(=O)(=O)c2ccc3c(c2)OCCO3)CC1 | inactive |
| Cc1cccc(N2CCN(C(=O)CCCn3c(=S)[nH]c4cc5c(cc4c3=O)OCO5)CC2)c1C | inactive |
| O=C(CNC(=O)c1ccccc1F)N/N=C/c1ccc2c(c1)OCO2 | inactive |
| CC(C)c1ccc(C(=O)N2CCCC(c3cc(C(=O)Nc4ccccc4Cl)no3)C2)cc1 (centres undefined) | inactive |
| CCN(CC)C1CCN(Cc2c(C(=O)N3CCCCCCC3)nc3ccc(Cl)cn23)C1 (centres undefined) | inactive |
| C/C(CC(=O)Nc1cc(C)ccn1)=N\NC(=O)c1cccc(C)c1O | inactive |
| NCC[C@@H]1CC[C@H](NC(=O)c2ccccc2F)[C@@H](CO)O1 | inactive |
| O=C(Nc1ccccc1)c1ccccc1OCc1cccc([N+](=O)[O-])c1 | inactive |
| CCCCCc1ccc(CC(=O)N2CCOCC2)cc1 | inactive |
| CCCN1C[C@@H](C)[C@H](OC)CN(C)C(=O)c2ccc(NC(=O)CC)cc2OC[C@@H]1C | inactive |
| O=C(COC(=O)c1ccc([N+](=O)[O-])o1)NC1CCCCC1 | inactive |
| O=C(O)c1cccc(S(=O)(=O)NNc2ccccc2C(F)(F)F)c1 | inactive |
| O=C(ONC(=O)C1CCCCC1C(=O)NOC(=O)c1ccccc1)c1ccccc1 (centres undefined) | inactive |
| C=CCNc1nc(Nc2cc(Cl)ccc2OC)nc(OC)n1 | inactive |
| COc1cccc(NC(=O)CC(=O)c2ccc([N+](=O)[O-])cc2)c1 | inactive |
| COc1cc2ccccc2cc1C(=O)N(CCN(C)C)c1nc2c(F)cc(F)cc2s1 | inactive |

| Compound | activity change, negative = inhibition |
| --- | --- |
| COc1ccccc1C(=O)Nc1ccc2c(c1)OC[C@@H](C)N(CC1CC1)C[C@H](C)[C@H](OC)CN(C)C2=O | inactive |
| CC(C)N=C(Nc1cccnc1)c1ccccc1 | inactive |
| C#CCNC(=O)C[C@@H]1C[C@@]2(C(=O)OCC)CCC=C2N(Cc2ccc(Cl)cc2Cl)C1=O | inactive |
| O=c1[nH]c2ccc(F)cc2[nH]c1=O | inactive |
| O=C(COC(=O)c1ccc([N+](=O)[O-])o1)Nc1ccc2c(c1)OC(F)(F)O2 | inactive |
| CN=C(Nc1cccnc1)c1cccc(C(F)(F)F)c1 | inactive |
| CCOC(=O)C1(Cc2ccccc2C)CCCN(C(=O)CCc2cccnc2)C1 (centres undefined) | inactive |
| Nc1ccc(C(=O)N/N=C/c2cn(Cc3ccc(F)cc3)c3ccccc23)cc1 | inactive |
| COc1ccc(O)c(C(c2c(C)[nH][nH]c2=O)c2c(C)[nH][nH]c2=O)c1 | inactive |
| O=C(CN1C(=O)NC2(CCc3ccccc32)C1=O)Nc1c(Cl)cccc1Cl (centres undefined) | inactive |
| O=C(N/N=C/c1ccc[nH]1)c1ccccc1O | inactive |
| O=[N+]([O-])c1ccccc1S(=O)(=O)Nc1nc2ccccc2s1 | inactive |
| O=C(CCCn1c(=S)[nH]c2cc3c(cc2c1=O)OCO3)N1CCN(c2ccccc2F)CC1 | inactive |
| Cc1ccc(-c2[nH]c3cc(C(=O)NCCCn4ccnc4)ccc3c(=O)c2O)cc1 | inactive |
| CO[C@@H]1CN(C)C(=O)c2ccc(NC(C)=O)cc2OC[C@H](C)N(C(=O)CC2CC2)C[C@@H]1C | inactive |
| COc1ccc(CCNC(=O)c2c(C)noc2C)cc1 | inactive |
| O=C(CC1C(=O)NCCN1Cc1cccc(F)c1F)NCCCC1CCCC1 (centres undefined) | inactive |
| Cc1ccccc1CN(C)C(=O)COC(=O)CSc1ccc([N+](=O)[O-])cc1 | inactive |
| COc1cccc(CN(C)CC(O)COc2cc(Cl)ccc2Cl)c1 (centres undefined) | inactive |
| O=C(C[C@@H]1C=C[C@H](NC(=O)C2CC2)[C@H](CO)O1)Nc1nccs1 | inactive |
| CC1CC(C)CN(S(=O)(=O)c2ccc(F)c(C(=O)NC3CCCCC3C)c2)C1 (centres undefined) | inactive |
| CN1C(=O)NC(=O)C(N=Nc2ccc(Cl)cc2)C1=O (centres undefined) | inactive |
| CCC(=O)Nc1ccc2c(c1)OC[C@H](C)N(C(=O)C1CC1)C[C@@H](C)[C@@H](OC)CN(C)C2=O | inactive |
| COc1ccc(C=Nc2cccc3ncccc23)cc1 | inactive |
| CCC(=O)Nc1ccc2c(c1)OC[C@@H](C)N(C(=O)CC)C[C@@H](C)[C@@H](OC)CN(C)C2=O | inactive |
| CO[C@@H]1CN(C)C(=O)c2ccc(NC(=O)C3CC3)cc2OC[C@H](C)N(Cc2cccc(F)c2)C[C@H]1C | inactive |
| Cn1c(=O)[nH]c(=O)c2c1nc(CN1CCOCC1)n2Cc1ccccc1 | inactive |

| Compound | activity change, negative = inhibition |
| --- | --- |
| CCN(C(=O)COC(=O)c1oc2ccccc2c1C)c1c(N)n(Cc2ccccc2)c(=O)[nH]c1=O | inactive |
| COc1ccc(/C(C)=N/N2CCCCC2)c(O)c1 | inactive |
| CCCC(=O)Nc1ccc2c(c1)OC[C@H](C)NC[C@@H](C)[C@@H](OC)CN(C)C2=O | inactive |
| O=C(O)c1cccc(Nc2ccnc(Nc3cccc(C(=O)O)c3)n2)c1 | inactive |
| Cn1c(SCCOc2ccccc2Cl)nnc1-c1ccncc1 | inactive |
| C#CCOc1ccc(CNC[C@H]2O[C@@H](n3ccc(N)nc3=O)[C@H](O)[C@@H]2O)cc1 | inactive |
| CO[C@H]1CN(C)C(=O)c2ccc(NC(=O)C3CC3)cc2OC[C@H](C)N(Cc2ccccc2)C[C@H]1C | inactive |
| Cc1ccc(C)c(N2CCN(C(=O)CCCn3c(=S)[nH]c4cc5c(cc4c3=O)OCO5)CC2)c1 | inactive |
| C=C1[C@H](C)CN[C@H]1CCO | inactive |
| CCCC(=O)Nc1ccc2c(c1)OC[C@H](C)N(Cc1ccc(F)cc1)C[C@@H](C)[C@H](OC)CN(C)C2=O | inactive |
| COc1ccc(N2C(=O)Cc3ccccc3C2=O)cc1 | inactive |
| O=C(O)C[C@H]1CC[C@H]2[C@@H](COC[C@H](O)CN2S(=O)(=O)c2ccc(Oc3ccccc3)cc2)O1 | inactive |
| CN1CCN(C(=O)c2cc(Cl)cc(Cl)c2)CC1 | inactive |
| O=C(CCCCCn1c(=S)[nH]c2cc3c(cc2c1=O)OCO3)N1CCN(Cc2ccccc2)CC1 | inactive |
| CN1CCN(c2cc(CNC[C@H]3O[C@@H](n4cnc5c(=O)[nH]c(N)nc54)[C@H](O)[C@@H]3O)ccc2F)CC1 | inactive |
| CCO[C@H]1OC(C(=O)N2CCOCC2)=C[C@@H](c2ccc3c(c2)OCO3)[C@@H]1CCCO | inactive |
| CCC(=O)Nc1ccc2c(c1)OC[C@H](C)N(C(=O)CC)C[C@@H](C)[C@@H](OC)CN(C)C2=O | inactive |
| O=C(CNc1cccc(S(=O)(=O)N2CCCC2)c1)Nc1cccc(Br)c1 | inactive |
| O=C(C[C@@H]1C[C@H]2c3cc(NC(=O)Nc4ccccc4F)ccc3O[C@H]2[C@H](CO)O1)NC1CCCC1 | inactive |
| CC(OC(=O)c1n[nH]c2ccccc12)C(=O)Nc1ccccc1[N+](=O)[O-] (centres undefined) | inactive |
| CCC(=O)Nc1ccc2c(c1)OC[C@H](C)N(C(=O)CC)C[C@@H](C)[C@H](OC)CN(C)C2=O | inactive |
| CO[C@H]1CN(C)C(=O)c2ccc(NC(=O)C3CC3)cc2OC[C@@H](C)N(Cc2ccccc2)C[C@H]1C | inactive |
| CCc1nc2c(OCc3ccc(C(=O)OC)cc3)cccn2c1N(C)C(=O)c1ccc(C)cc1 | inactive |
| CCC(=O)N1C[C@H](C)[C@H](OC)CN(C)C(=O)c2ccc(NC(=O)c3ccccc3)cc2OC[C@H]1C | inactive |
| Cc1ccc(C(=O)N/N=C\c2ccc(OC(=O)c3cccc(F)c3)cc2)cn1 | inactive |
| O=C(COC(=O)c1ccc([N+](=O)[O-])o1)Nc1ccc(N2CCOCC2)cc1 | inactive |
